Legend:
DLD-1 = test: Cytotoxicity against human DLD-1 cells expressing K-Ras G13D mutant assessed as reduction in cell viability incubated for 72 hrs by CCK-8 assay; type: functional, cell-based; conditions: DLD-1, 72 h
SW-620 = test: Cytotoxicity against human SW620 cells expressing K-Ras G12V mutant assessed as reduction in cell viability incubated for 72 hrs by CCK-8 assay; type: functional, cell-based; conditions: SW-620, 72 h
HT-29 = test: Cytotoxicity against wild type human HT-29 cells assessed as reduction in cell viability incubated for 72 hrs by CCK-8 assay; type: functional, cell-based; conditions: HT-29, 72 h
NCI-H460 = test: Cytotoxicity against human NCI-H460 cells expressing K-Ras Q61H mutant assessed as reduction in cell viability incubated for 72 hrs by CCK-8 assay; type: functional, cell-based; conditions: NCI-H460, 72 h
A549 = test: Cytotoxicity against human A549 cells expressing K-Ras […] mutant assessed as reduction in cell viability incubated for 72 hrs by CCK-8 assay; type: functional, cell-based; conditions: A549, 72 h
NCI-H1299 = test: Cytotoxicity against human NCI-H1299 cells expressing N-ras mutant assessed as reduction in cell viability incubated for 72 hrs by CCK-8 assay; type: functional, cell-based; conditions: NCI-H1299, 72 h
[1] = Cytotoxicity against human NCM460 cells assessed as reduction in cell viability incubated for 72 hrs by CCK-8 assay; type: toxicity, cell-based

Row | SMILES | IC50 (DLD-1) [µM] | IC50 (SW-620) [µM] | IC50 (HT-29) [µM] | IC50 (NCI-H460) [µM] | IC50 (A549) [µM] | IC50 (NCI-H1299) [µM] | IC50 at 72 h [1] [µM]
1 | CC[C@H](C)[C@@H]1OC(=O)C(C)(C)C(=O)[C@H](Cc2ccccc2)OC(=O)[C@H](C(C)C)OC(=O)[C@@H](NC(=O)c2ccccc2)[C@@H](C)OC1=O | 1.9 | 0.36 | > 20 | > 20 | > 20 | > 20 | > 20
2 | CC[C@H](C)[C@@H]1OC(=O)C(C)(C)C(=O)[C@H](Cc2ccccc2)OC(=O)[C@H](C(C)C)OC(=O)[C@@H](NC(=O)c2cccc(F)c2)[C@@H](C)OC1=O | 3.5 | 1.1 | > 20 | > 20 | > 20 | > 20 | > 20
3 | CC[C@H](C)[C@@H]1OC(=O)C(C)(C)C(=O)[C@@H](Cc2ccccc2)OC(=O)[C@H](C(C)C)OC(=O)[C@@H](NC(=O)c2cccc(F)c2)[C@@H](C)OC1=O | 2.7 | 0.33 | > 20 | 8.8 | 11.2 | > 20 | > 20
4 | CC[C@H](C)[C@@H]1OC(=O)C(C)(C)C(=O)[C@@H](Cc2ccccc2)OC(=O)[C@H](C(C)C)OC(=O)[C@@H](NC(=O)c2cccc(O)c2)[C@@H](C)OC1=O | > 20 | 1.9 | > 20 | > 20 | 10.1 | > 20 | > 20
5 | CC[C@H](C)[C@@H]1OC(=O)C(C)(C)C(=O)[C@@H](Cc2ccccc2)OC(=O)[C@H](C(C)C)OC(=O)[C@@H](NC(=O)c2ccccc2)[C@@H](C)OC1=O | 0.07 | 0.04 | > 20 | 1.6 | 0.33 | 4.5 | > 20
6 | CC[C@H](C)[C@@H]1OC(=O)C(C)(C)C(=O)[C@@H](Cc2ccccc2)OC(=O)[C@H](C(C)C)OC(=O)[C@@H](NC(=O)c2ccccc2O)[C@@H](C)OC1=O | 2.8 | 0.33 | > 20 | 4.4 | 9.7 | > 20 | 6.6
7 | CC[C@H](C)[C@@H]1OC(=O)C(C)(C)C(=O)[C@@H](Cc2ccccc2)OC(=O)[C@H](C(C)C)OC(=O)[C@@H](NC(=O)c2ccccc2F)[C@@H](C)OC1=O | 0.6 | 0.14 | > 20 | 1.3 | 4.3 | 3.3 | > 20
8 | CC[C@H](C)[C@@H]1OC(=O)C(C)(C)[C@@H](O)[C@@H](Cc2ccccc2)OC(=O)[C@H](C(C)C)OC(=O)[C@@H](NC(=O)c2cccc(NC=O)c2O)[C@@H](C)OC1=O | 0.059 | 0.0038 | 0.0006 | 0.316 | 4e-05 | 0.0105 | 0.00024
9 | CC[C@H](C)[C@@H]1OC(=O)C(C)(C)C(=O)[C@H](Cc2ccccc2)OC(=O)[C@H](C(C)C)OC(=O)[C@@H](NC(=O)c2ccccc2F)[C@@H](C)OC1=O | 2.6 | 0.56 | 9.4 | > 20 | > 20 | > 20 | > 20
10 | CC[C@H](C)[C@@H]1OC(=O)C(C)(C)C(=O)[C@H](Cc2ccccc2)OC(=O)[C@H](C(C)C)OC(=O)[C@@H](NC(=O)c2cccc(O)c2)[C@@H](C)OC1=O | > 20 | 1.3 | > 20 | 17.9 | > 20 | 3.1 | > 20

Reference: ChEMBL document CHEMBL5634178, “Precursor-Directed Biosynthesis of Neoantimycin Derivatives with Selective Cytotoxicity” (J Nat Prod, 2024)
